Columns and labels:
[1] = biological target: T1, MCT1 (monocarboxylate transporter 1) (Homo sapiens, UniProt P53985); test: intracellular lactate accumulation and 3H-lactate efflux in HAP1 MCT4-KO cells; DARTS in HCT116 membrane extracts
T1 construct: gene SLC16A1
T1 sequence (P53985 1-500): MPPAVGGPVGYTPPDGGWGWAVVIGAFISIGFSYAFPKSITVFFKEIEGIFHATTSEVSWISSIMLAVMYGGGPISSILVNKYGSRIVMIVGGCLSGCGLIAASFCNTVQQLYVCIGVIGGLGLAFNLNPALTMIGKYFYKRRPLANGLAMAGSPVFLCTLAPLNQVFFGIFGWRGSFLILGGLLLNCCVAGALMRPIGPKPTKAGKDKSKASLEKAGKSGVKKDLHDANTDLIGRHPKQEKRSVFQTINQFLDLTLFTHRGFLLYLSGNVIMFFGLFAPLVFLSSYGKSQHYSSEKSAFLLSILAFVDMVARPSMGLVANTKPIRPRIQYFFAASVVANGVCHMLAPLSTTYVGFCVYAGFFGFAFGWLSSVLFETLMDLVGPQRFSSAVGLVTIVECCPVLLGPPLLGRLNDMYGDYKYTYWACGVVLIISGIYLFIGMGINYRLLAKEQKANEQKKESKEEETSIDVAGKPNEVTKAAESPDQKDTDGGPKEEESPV
T1 sequence (P35613 22-385 partner): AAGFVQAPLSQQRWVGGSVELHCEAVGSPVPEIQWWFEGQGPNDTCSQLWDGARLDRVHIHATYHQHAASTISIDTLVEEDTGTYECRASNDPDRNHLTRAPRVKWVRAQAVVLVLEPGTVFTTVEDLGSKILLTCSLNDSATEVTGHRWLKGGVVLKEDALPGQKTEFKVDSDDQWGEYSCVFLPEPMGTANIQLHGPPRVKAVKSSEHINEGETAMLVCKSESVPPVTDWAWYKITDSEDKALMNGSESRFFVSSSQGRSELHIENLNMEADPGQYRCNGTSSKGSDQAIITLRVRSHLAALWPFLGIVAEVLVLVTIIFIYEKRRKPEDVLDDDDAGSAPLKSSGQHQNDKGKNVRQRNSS

[2] = biological target: T2, MCT4 (monocarboxylate transporter 4) (Homo sapiens, UniProt O15427); test: intracellular lactate accumulation and 3H-lactate efflux in HAP1 MCT1-KO cells; DARTS in HCT116 membrane extracts; assay type: cell-based
T2 construct: gene SLC16A3
T2 sequence (O15427 2-465): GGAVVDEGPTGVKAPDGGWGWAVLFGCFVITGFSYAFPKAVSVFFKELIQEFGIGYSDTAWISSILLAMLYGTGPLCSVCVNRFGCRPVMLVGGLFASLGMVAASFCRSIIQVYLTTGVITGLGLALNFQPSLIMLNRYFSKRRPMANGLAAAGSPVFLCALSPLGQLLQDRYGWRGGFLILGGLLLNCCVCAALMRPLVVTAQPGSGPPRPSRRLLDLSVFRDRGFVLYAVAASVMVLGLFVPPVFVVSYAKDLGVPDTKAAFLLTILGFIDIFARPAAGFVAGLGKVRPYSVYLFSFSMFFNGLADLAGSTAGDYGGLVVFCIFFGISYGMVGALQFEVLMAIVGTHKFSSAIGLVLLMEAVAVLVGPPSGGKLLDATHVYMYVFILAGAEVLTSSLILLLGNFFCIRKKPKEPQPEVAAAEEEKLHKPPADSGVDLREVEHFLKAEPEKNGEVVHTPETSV
T2 sequence (P35613 22-385 partner): T1 sequence (P35613 22-385 partner)

CCOC(=O)Oc1c(OC)cc(C(=O)O[C@@H]2C[C@@H]3CN4CCc5c([nH]c6cc(OC)ccc56)[C@H]4C[C@@H]3[C@H](C(=O)OC)[C@H]2OC)cc1OC [Syrosingopine] showed an IC50 [1] of ~2.5 µM and an IC50 [2] of ~0.04 µM.

Source: paper PMC6302548, “Dual Inhibition of the Lactate Transporters MCT1 and MCT4 Is Synthetic Lethal with Metformin due to NAD+ Depletion in Cancer Cells” (Cell Reports, 2018)
